Data reported in patent publication US8906925B2, “Pyrido[4,3-B]indoles containing rigid moieties” (Medivation Technologies, Inc., priority 2008, dated 2014).
Several values for one entry are separate records, joined by “and”; a condition that tells them apart may be missing. Identical values can stand only once. Like-named read-outs stand apart in the source and are kept apart here.

What was measured:
[1] = target: T1, rat adrenergic α1B receptor (Rattus norvegicus, UniProt P15823); test: Adrenergic α1B radioligand binding ([3H]Prozosin); settings: compound at 1 μM
T1 construct: from tissue; host or cells: Wistar rat liver
T1 sequence (P15823 1-515): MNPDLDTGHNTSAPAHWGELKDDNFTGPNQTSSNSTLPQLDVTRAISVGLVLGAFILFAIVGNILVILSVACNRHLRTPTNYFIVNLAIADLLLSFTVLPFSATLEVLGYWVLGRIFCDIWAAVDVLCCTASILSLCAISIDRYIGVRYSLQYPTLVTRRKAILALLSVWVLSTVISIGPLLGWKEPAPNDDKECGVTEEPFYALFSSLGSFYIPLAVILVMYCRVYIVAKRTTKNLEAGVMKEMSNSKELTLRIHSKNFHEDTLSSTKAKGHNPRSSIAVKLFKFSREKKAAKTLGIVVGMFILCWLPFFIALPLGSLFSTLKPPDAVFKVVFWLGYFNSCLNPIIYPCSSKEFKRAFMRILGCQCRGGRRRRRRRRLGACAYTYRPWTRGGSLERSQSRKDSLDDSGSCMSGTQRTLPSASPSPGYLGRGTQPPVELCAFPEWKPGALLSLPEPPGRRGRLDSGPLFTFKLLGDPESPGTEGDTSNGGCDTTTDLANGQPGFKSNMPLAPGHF
Description: To evaluate in radioligand binding assays the activity of compounds of the invention, rat adrenergic α1B receptor obtained from Wistar Rat liver (Garcia-S'ainz, J. A. et al., Biochem. Biophys. Res. Commun. 186:760, 1992; Michel A. D. et al., Br. J. Pharmacol. 98:883, 1989) in a modified Tris-HCl buffer (50 mM Tris-HCl buffer, pH 7.4, 0.5 mM EDTA) was used. Compounds of the invention were incubated with 0.25 nM [^3H]Prozosin for 60 min. at 25° C. Non-specific binding was estimated in the presence of 10 μM phentolamine. Receptor proteins were filtered and washed, the filters were then counted to determine [^3H]Prozosin specifically bound. Compounds were screened at 1 μM or lower, using 1% DMSO as vehicle. Compounds of the invention were tested in this biochemical assay and percent inhibition of specific binding was determined.

[2] = target: T2, human recombinant adrenergic α2C receptor (Homo sapiens, UniProt P18825); test: Adrenergic α2C radioligand binding ([3H]MK-912); settings: compound at 1 μM
T2 construct: expressed in transfected cells; host or cells: insect Sf9 cells
T2 sequence (P18825 1-462): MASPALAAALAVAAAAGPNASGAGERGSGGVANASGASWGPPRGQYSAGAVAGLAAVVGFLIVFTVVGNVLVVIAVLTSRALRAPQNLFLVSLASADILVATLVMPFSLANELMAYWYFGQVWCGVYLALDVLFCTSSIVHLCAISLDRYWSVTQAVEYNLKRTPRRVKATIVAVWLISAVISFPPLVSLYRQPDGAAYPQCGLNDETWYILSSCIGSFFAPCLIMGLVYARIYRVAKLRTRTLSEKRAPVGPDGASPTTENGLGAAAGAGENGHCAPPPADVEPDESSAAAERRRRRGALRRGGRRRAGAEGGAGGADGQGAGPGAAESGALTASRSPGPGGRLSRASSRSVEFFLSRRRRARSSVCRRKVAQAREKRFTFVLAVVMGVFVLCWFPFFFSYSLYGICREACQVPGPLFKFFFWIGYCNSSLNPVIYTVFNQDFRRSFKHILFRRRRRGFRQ
Description: To evaluate in radioligand binding assays the activity of compounds of the invention, human recombinant adrenergic α2C receptor expressed in insect Sf9 cells (Uhlen S et al. J Pharmacol Exp Ther. 271:1558, 1994) in a modified Tris-HCl buffer (50 mM Tris-HCl, pH 7.4, 12.5 mM MgCl2, 2 mM EDTA) was used. Compounds of the invention were incubated with 1 nM [^3H]MK-912 for 60 min. at 25° C. Non-specific binding was estimated in the presence of […] WB-4101. Receptor proteins were filtered and washed, the filters were then counted to determine [^3H]MK-912 specifically bound. Compounds were screened at 1 μM or lower, using 1% DMSO as vehicle. Compounds of the invention were tested in this biochemical assay and percent inhibition of specific binding was determined.

[3] = test system: rat central imidazoline I2 receptor; test: Central imidazoline I2 radioligand binding ([3H]Idazoxan)
Description: To evaluate in radioligand binding assays the activity of compounds of the invention, rat central imidazoline I2 receptor obtained from Wistar Rat cerebral cortex (Brown, C. M. et al., Br. J. Pharmacol. 99:803, 1990) in a modified Tris-HCl buffer (50 mM Tris-HCl buffer, pH 7.4, 0.5 mM EDTA) was used. Compounds of the invention were incubated with 2 nM [^3H]Idazoxan for 30 min. at 25° C. Non-specific binding was estimated in the presence of 1 μM Idazoxan. Receptor proteins were filtered and washed, the filters were then counted to determine [^3H]Idazoxan specifically bound. Compounds were screened at 1 μM or lower, using 1% DMSO as vehicle. Compounds of the invention were tested in this biochemical assay and percent inhibition of specific binding was determined.

[4] = percent inhibition of specific binding, 1 µM
[5] = percent inhibition of specific binding, read-out: Inhibition of ligand binding, Adrenergic α1B
[6] = percent inhibition of specific binding, read-out: Inhibition of ligand binding, Adrenergic α2C

Row | Compound | Inhibition of ligand binding, Adrenergic α1B [1, 4] | inhibition at 1 µM [1, 5] | Inhibition of ligand binding, Adrenergic α2C [2, 4] | inhibition at 1 µM [2, 6] | Imidazoline I2 Central (1 μM), percent inhibition of specific binding ([3]; 1 µM) | Imidazoline I2 Central (1 μM), percent inhibition of specific binding [3] | inhibition at 1 µM ([1]; read-out: Inhibition of ligand binding, Adrenergic α1B (percent inhibition of specific binding)) | inhibition at 1 µM ([2]; 1 nM [3H]MK-912, read-out: Inhibition of ligand binding, Adrenergic α2C (percent inhibition of specific binding))
1 | Cc1ccc(C(O)Cn2c3c(c4cc(C)ccc42)CN(C)CC3)cc1 (racemic) [Compound 43, racemic-2-(1,2,3,4-tetrahydro-2,8-dimethylpyrido[4,3-b]indol-5-yl)-1-p-tolylethanol] | 96% | 97% | 94% | 100% | 76% and 79% | – | – | –
2 | CCN1CCc2c(c3ccccc3n2CC(O)c2ccc(C)cc2)C1 (racemic) [Compound 44, racemic-2-(2-ethyl-1,2,3,4-tetrahydropyrido[4,3-b]indol-5-yl)-1-p-tolylethanol] | – | 38% | – | 35% | – | 46% | – | –
3 | CCN1CCc2c(c3cc(C)ccc3n2CC(O)c2ccc(C)cc2)C1 (racemic) [Compound 51, racemic-2-(2-ethyl-1,2,3,4-tetrahydro-8-methylpyrido[4,3-b]indol-5-yl)-1-p-tolylethanol] | – | 95% | – | 92% | – | 79% | – | –
4 | Cc1ccc(C(O)Cn2c3c(c4ccccc42)CN(C)CC3)cc1 (racemic) [Compound 53, racemic-2-(1,2,3,4-tetrahydro-2-methylpyrido[4,3-b]indol-5-yl)-1-p-tolylethanol] | – | 66% | – | 82% | – | 78% | – | –
5 | Cc1ccc2[nH]c3c(c2c1)CN(C)CC3 [Compound 3, 2,8-Dimethyl-2,3,4,5-tetrahydro-1H-pyrido[4,3-b]indole] | – | – | – | – | – | 58% | – | –
6 | C/C(=C\n1c2c(c3cc(Cl)ccc31)CN(C)CC2)c1ccc(F)cc1 [Compound 83, (E)-8-chloro-5-(2-(4-fluorophenyl)prop-1-enyl)-2,3,4,5-tetrahydro-2-methyl-1H-pyrido[4,3-b]indole] | – | 96% | – | 99% | – | 85% | – | –
7 | Cc1ccc2c(c1)c1c(n2CC#Cc2ccccn2)CCN(C)C1 [Compound No. 500, 2,3,4,5-tetrahydro-2,8-dimethyl-5-(3-(pyridin-2-yl)prop-2-ynyl)-1H-pyrido[4,3-b]indole] | – | – | – | – | – | 54% | 27% | 43%
